IC50 data for 1 compound are collected here from paper PMC8619024, “COX Inhibitory and Cytotoxic Naphthoketal-Bearing Polyketides from Sparticola junci” (International Journal of Molecular Sciences, 2021).

This test has as its target T1, COX-2.
T1 construct: gene PTGS2; COX Activity Assay Kit (Cayman); species inferred from usual Cayman COX-2 (human recombinant; ovine possible); docking used PDB 3LN1
Briefly: COX peroxidase activity kit, TMPD oxidation at […] nm. In kind it is biochemical. As to conditions: DMSO; triplicate.

`O=C(C[C@H](O)C1(c2cccc(O)c2O)Oc2cccc3cccc(c23)O1)OC[C@H](O)CO` [compound 1, (8S)-(22R)-2,3-dihydroxypropyl-3-(2-(2,3-dihydroxyphenyl)naphtho[1,8-de][1,3]dioxin-2-yl)-3-hydroxypropanoate]: the IC50 (in general, the concentration that inhibits the measured activity by half) came out at 0.3 µM.
